Usually melting point stands for the temperature, or range, at which the solid turns liquid.

Melting point data for 31 compounds are collected here from patent publication US20080214583A1, “7H-Pyrrolo[2,3-D]Pyrimidine Derivatives, As Well As Their Therapeutically Acceptable Salts, Pharmaceutical Preparations Containing Them And Process For Production The Active Agent” (priority 2004, published 2008).

On to `Cc1c(C)n(-c2cccc(Cl)c2)c2ncnc(Nc3cc(C(C)(C)C)nn3-c3cccc([N+](=O)[O-])c3)c12` [Example 4, [5-tert.-butyl-2-(3-nitro-phenyl)-2H-pyrazole-3-yl]-[7-(3-chlorophenyl)-5,6-dimethyl-7H-pyrrolo[2,3-d]pyrimidine-4-yl]-amine], for which the melting point fell in the range of 189 to 190 °C.
On to `Cc1c(C)n(CCCN2CCOCC2)c2ncnc(NN=Cc3ccc(O)c([N+](=O)[O-])c3)c12` [Example 13, 4-{[5,6-dimethyl-7-(3-morpholine-4-yl-propyl)-7H-pyrrolo[2,3-d]pyrimidine-4-yl]hydrazonomethyl}-2-nitro-phenol], for which the melting point lay in the range of 158.8 to 161.5 °C.
The figure for `Cc1c(C)n(CCCN2CCOCC2)c2ncnc(Nc3cc(C(C)(C)C)nn3-c3cccc([N+](=O)[O-])c3)c12` [Example 16, [5-tert.-butyl-2-(3-nitro-phenyl)-2H-pyrazole-3-yl]-[5,6-dimethyl-7-(3-morpholine-4-yl-propyl)-7H-pyrrolo[2,3-d]pyrimidine-4-yl]-amine] is 120.9 to 125.3 °C.
Next, `COc1ccccc1C=NNc1ncnc2c1c(C)c(C)n2Cc1ccccc1` [Example 17, N-(7-benzyl-5,6-dimethyl-7H-pyrrolo[2,3-d]pyrimidine-4-yl)-N′-(2-methoxy-benzylidene)-hydrazine]: 214 to 216 °C; `Cc1c(C)n(-c2cccc(Cl)c2)c2ncnc(C(=NN)c3ccc(O)c([N+](=O)[O-])c3)c12` [Example 21, 4-{[5,6-dimethyl-7-(3-chloro-phenyl)-7H-pyrrolo[2,3-d]pyrimidine-4-yl]-hydrazonomethyl}-2-nitro-phenol]: 204.2 to 206.5 °C; `COc1cc(C(=NN)c2ncnc3c2c(C)c(C)n3-c2cccc(Cl)c2)ccc1O` [Example 24, 4-{[5,6-dimethyl-7-(3-chloro-phenyl)-7H-pyrrolo[2,3-d]pyrimidine-4-yl]-hydrazonomethyl}-2-methoxy-phenol]: 146 to 187 °C.
For `Cc1c(C)n(Cc2ccccc2)c2ncnc(NN=Cc3ccc(C(F)(F)F)cc3)c12` [Example 26, N-(7-benzyl-5,6-dimethyl-7H-pyrrolo[2,3-d]pyrimidine-4-yl)-N′-(4-trifluoromethyl-benzylidene)-hydrazine], the melting point is 165 to 166 °C.
Compound `Cc1c(C)n(Cc2ccccc2)c2ncnc(C(=NN)c3ccc(O)c([N+](=O)[O-])c3)c12` [Example 28, 4-[(7-benzyl-5,6-dimethyl-7H-pyrrolo[2,3-d]pyrimidine-4-yl)-hydrazonomethyl]-2-nitro-phenol] displayed a melting point of 202 to 205 °C.
The compound `Cc1cc(C(=NN)c2ncnc3c2c(C)c(C)n3Cc2ccccc2)cc(C)c1O` [Example 29, 4-[(7-benzyl-5,6-dimethyl-7H-pyrrolo[2,3-d]pyrimidine-4-yl)-hydrazonomethyl]-2,6-dimethyl-phenol] came in with a melting point of 237 to 240 °C.
The figure for `Cc1c(C)n(Cc2ccccc2)c2ncnc(C(=NN)c3ccc(N(C)C)cc3)c12` [Example 31, {4-[(7-benzyl-5,6-dimethyl-7H-pyrrolo[2,3-d]pyrimidine-4-yl)-hydrazonomethyl]-phenyl}-dimethyl-amine] is 219 to 221 °C; for `Cc1c(C)n(Cc2ccccc2)c2ncnc(NN=Cc3cccc([N+](=O)[O-])c3)c12` [Example 32, N-(7-benzyl-5,6-dimethyl-7H-pyrrolo[2,3-d]pyrimidine-4-yl)-N′-(3-nitro-benzylidene)-hydrazine] it is 103 to 109.5 °C; for `COc1cc(C(=NN)c2ncnc3c2c(C)c(C)n3Cc2ccccc2)ccc1O` [Example 33, 4-[(7-benzyl-5,6-dimethyl-7H-pyrrolo[2,3-d]pyrimidine-4-yl)-hydrazonomethyl]-2-methoxy-phenol] it is 220 to 221 °C.
The figure for `Cc1c(C)n(Cc2ccccc2)c2ncnc(C(=NN)c3ccc(C#N)cc3)c12` [Example 35, 4-[(7-benzyl-5,6-dimethyl-7H-pyrrolo[2,3-d]pyrimidine-4-yl)-hydrazonomethyl]-benzonitrile] is 223.5 to 225 °C; for `Cc1c(C)n(-c2cccc(Cl)c2)c2ncnc(NN=C3C(=O)Nc4ccc(Br)cc43)c12` [Example 38, 5-bromo-3-{[5,6-dimethyl-7-(3-chloro-phenyl)-7H-pyrrolo[2,3-d]pyrimidine-4-yl]-hydrazono}-1,3-dihydro-indole-2-on] it is 292 to 294.5 °C; for `Cc1c(C)n(-c2cccc(Cl)c2)c2ncnc(NN=C3C(=O)Nc4ccccc43)c12` [Example 39, 3-{[5,6-dimethyl-7-(3-chloro-phenyl)-7H-pyrrolo[2,3-d]pyrimidine-4-yl]-hydrazono}-1,3-dihydro-indole-2-on] it is 281 to 293 °C.
Next, `Cc1c(C)n(-c2cccc(Cl)c2)c2ncnc(NN=C3C(=O)Nc4ccc(Cl)cc43)c12` [Example 40, 5-chloro-3-{[5,6-dimethyl-7-(3-chloro-phenyl)-7H-pyrrolo[2,3-d]pyrimidine-4-yl]-hydrazono}-1,3-dihydro-indole-2-on]: 314 to 315 °C; `Cc1c(C)n(-c2cccc(Cl)c2)c2ncnc(NN=C3C(=O)Nc4c(Cl)ccc(Cl)c43)c12` [Example 41, 4,7-dichloro-3-{[5,6-dimethyl-7-(3-chloro-phenyl)-7H-pyrrolo[2,3-d]pyrimidine-4-yl]-hydrazono}-1,3-dihydro-indole-2-on]: 284 to 285 °C; `Cc1ccc2c(c1)C(=NNc1ncnc3c1c(C)c(C)n3-c1cccc(Cl)c1)C(=O)N2` [Example 42, 3-{[5,6-dimethyl-7-(3-chloro-phenyl)-7H-pyrrolo[2,3-d]pyrimidine-4-yl]-hydrazono}-5-methyl-1,3-dihydro-indole-2-on]: 302 to 303 °C.
Consider `Cc1c(C)n(-c2cccc(Cl)c2)c2ncnc(NN=C3C(=O)Nc4ccc(F)cc43)c12` [Example 43, 3-{[5,6-dimethyl-7-(3-chloro-phenyl)-7H-pyrrolo[2,3-d]pyrimidine-4-yl]-hydrazono}-5-fluoro-1,3-dihydro-indole-2-on], for which the melting point fell in the range of 271 to 279 °C.
`Cc1c(C)n(-c2cccc(Cl)c2)c2ncnc(NN=C3C(=O)Nc4ccc(OC(F)(F)F)cc43)c12` [Example 44, 3-{[5,6-dimethyl-7-(3-chloro-phenyl)-7H-pyrrolo[2,3-d]pyrimidine-4-yl]-hydrazono}-5-trifluoromethoxy-1,3-dihydro-indole-2-on] displayed a melting point of 262 to 276 °C.
The figure for `Cc1c(C)n(Cc2ccccc2)c2ncnc(NN=C3C(=O)Nc4ccc(Br)cc43)c12` [Example 45, 3-[(7-benzyl-5,6-dimethyl-7H-pyrrolo[2,3-d]pyrimidine-4-yl)-hydrazono]-5-bromo-1,3-dihydro-indole-2-on] is 288 to 290 °C; for `Cc1c(C)n(Cc2ccccc2)c2ncnc(NN=C3C(=O)Nc4ccccc43)c12` [Example 46, 3-[(7-benzyl-5,6-dimethyl-7H-pyrrolo[2,3-d]pyrimidine-4-yl)-hydrazono]-1,3-dihydro-indole-2-on] it is 292 to 293 °C.
The figure for `Cc1c(C)n(Cc2ccccc2)c2ncnc(NN=C3C(=O)Nc4ccc(Cl)cc43)c12` [Example 48, 3-[(7-benzyl-5,6-dimethyl-7H-pyrrolo[2,3-d]pyrimidine-4-yl)-hydrazono]-5-chloro-1,3-dihydro-indole-2-on] is 302 to 303 °C; for `Cc1c(C)n(Cc2ccccc2)c2ncnc(NN=C3C(=O)Nc4cc(Cl)cc(Cl)c43)c12` [Example 49, 3-[(7-benzyl-5,6-dimethyl-7H-pyrrolo[2,3-d]pyrimidine-4-yl)-hydrazono]-4,6-dichloro-1,3-dihydro-indole-2-on] it is 299 °C.
Next, `Cc1c(C)n(Cc2ccccc2)c2ncnc(NN=C3C(=O)Nc4c(Cl)ccc(Cl)c43)c12` [Example 50, 3-[(7-benzyl-5,6-dimethyl-7H-pyrrolo[2,3-d]pyrimidine-4-yl)-hydrazono]-4,7-dichloro-1,3-dihydro-indole-2-on]: 298 °C; `Cc1c(C)n(-c2cccc(Cl)c2)c2ncnc(Nc3c(C#N)c(-c4ccccc4)c(-c4ccccc4)n3Cc3ccccc3)c12` [Example 62, 1-benzyl-2-[5,6-dimethyl-7-(3-chloro-phenyl)-7H-pyrrolo[2,3-d]pyrimidine-4-yl-amino]-4,5-diphenyl-1H-pyrrol-3-carbonitrile]: 187.4 to 189.3 °C; `Cc1c(C#N)c(Nc2ncnc3c2c(C)c(C)n3-c2cccc(Cl)c2)n(Cc2ccccc2)c1C` [Example 63, 1-benzyl-2-[5,6-dimethyl-7-(3-chloro-phenyl)-7H-pyrrolo[2,3-d]pyrimidine-4-yl-amino]-4,5-dimethyl-1H-pyrrol-3-carbonitrile]: 228.1 to 229 °C.
`Cc1c(C#N)c(Nc2ncnc3c2c2ccccc2n3Cc2ccccc2)n(-c2cccc(Cl)c2)c1C` [Example 64, 2-(9-benzyl-9H-1,3,9-triaza-fluorene-4-yl-amino)-1-(3-chloro-phenyl)-4,5-dimethyl-1H-pyrrol-3-carbonitrile] displayed a melting point of 252.2 to 253.1 °C.
The figure for `N#Cc1c(-c2ccccc2)c(-c2ccccc2)n(Cc2ccccc2)c1Nc1ncnc2c1c1ccccc1n2Cc1ccccc1` [Example 66, 1-benzyl-2-(9-benzyl-9H-1,3,9-triaza-fluorene-4-yl-amino)-4,5-diphenyl-1H-pyrrol-3-carbonitrile] is greater than 90 °C; for `Cc1c(C)n(Cc2ccccc2)c2ncnc(Nc3c(C#N)c(-c4ccccc4)c(-c4ccccc4)n3Cc3ccccc3)c12` [Example 74, 1-benzyl-2-(7-benzyl-5,6-dimethyl-7H-pyrrolo[2,3-d]pyrimidine-4-yl-amino)-4,5-diphenyl-1H-pyrrol-3-carbonitrile] it is 197.1 to 197.6 °C.
The figure for `Cc1c(C#N)c(Nc2ncnc3c2c(C)c(C)n3Cc2ccccc2)n(Cc2ccccc2)c1C` [Example 75, 1-benzyl-2-(7-benzyl-5,6-dimethyl-7H-pyrrolo[2,3-d]pyrimidine-4-yl-amino)-4,5-dimethyl-1H-pyrrol-3-carbonitrile] is 236 to 239.1 °C.
